Data: ChEMBL document CHEMBL1125467, “Structure-activity relationship in the gastric cytoprotective effect of several sesquiterpene lactones” (1992)

What was measured:
Rattus norvegicus [1] = experiment: Cytoprotective effect at an oral dose of 40 mg/kg; type: functional; set-up: unit not given here
Rattus norvegicus [2] = experiment: Compound was evaluated for the cytoprotective effect at an oral dose of 40 mg/kg in rat; type: functional

**Q.** How did the Cytoprotective effect (Rattus norvegicus [1]) turn out when `C=C1C(=O)O[C@H]2[C@H]1CCC(C)=C1C[C@H]3O[C@@]3(C)[C@@H]12` [LUDARTIN] was run?
**A.** 0.5

**Q.** How did the Cytoprotective effect (Rattus norvegicus [1]) turn out when `CC1C(=O)O[C@@H]2[C@H]1CC[C@H](C)[C@@]1(O)C=CC(=O)[C@@]21C` (some centres not stated) was run?
**A.** 4

**Q.** With `C=C1C(=O)O[C@@H]2C[C@@H](C)C3C=CC(=O)[C@@]3(C)[C@@H](OC(=O)CN)[C@H]12` (some centres not stated) as the molecule, how does the Cytoprotective effect (Rattus norvegicus [1]) read?
**A.** 0.85

**Q.** `C=C1C(=O)O[C@H]2C[C@@H](C)[C@@H]3C=CC(=O)[C@@]3(C)[C@H](O)[C@H]12` [MEXICANIN I] was tested. Which Cytoprotective effect (Rattus norvegicus [1]) did it give?
**A.** 0.25

**Q.** Which Cytoprotective effect (Rattus norvegicus [1]) does the source give for `C=C1C(=O)O[C@@H]2C[C@@H](C)C3CCC(C)=C3[C@@H](O)[C@H]12` (some centres not stated) [GUAIANOLIDE] here?
**A.** 0.7

**Q.** With `C=C1C(=O)O[C@@H]2[C@H]1CC[C@H](C)[C@@]1(O)C=CC(=O)[C@@]21C` [HYMENIN] as the molecule, how does the Cytoprotective effect (Rattus norvegicus [1]) read?
**A.** 0.25

**Q.** Which Cytoprotective effect (Rattus norvegicus [1]) does the source give for `C=C1C(=O)O[C@@H]2C[C@@H](C)C3=CCC(=O)[C@@]3(C)[C@@H](OC(C)=O)[C@H]12` here?
**A.** 0.9

**Q.** With `C=C1C(=O)O[C@@H]2[C@H]3C(C)=CC(=O)C3=C(C)CC[C@@H]12` [DEHYDROLEUCODIN] as the molecule, how does the Cytoprotective effect (Rattus norvegicus [1]) read?
**A.** 0.25

**Q.** How did the Cytoprotective effect (Rattus norvegicus [1]) turn out when `C=C1C(=O)OC2/C=C(\C)C[C@@H]3C=C(CC(OC(=O)C(C)CC)[C@@H]12)C(=O)O3` (some centres not stated) was run?
**A.** 4

**Q.** Which Cytoprotective effect (Rattus norvegicus [1]) does the source give for `C=C1C(=O)O[C@@H]2C[C@@H](C)C3C=CC(=O)[C@@]3(C)[C@@H](OC(=O)CNC(=O)C(F)(F)F)[C@H]12` (some centres not stated) here?
**A.** 0.95

**Q.** `C[C@@H]1C[C@H]2OC(=O)[C@H](C)[C@H]2[C@H](O)[C@]2(C)C(=O)C=CC12` (some centres not stated) was tested. Which Cytoprotective effect (Rattus norvegicus [1]) did it give?
**A.** 0.66

**Q.** With `C[C@@H]1C[C@H]2OC(=O)[C@H](C)[C@H]2[C@H](O)[C@]2(C)C(=O)CCC12` (some centres not stated) as the molecule, how does the Cytoprotective effect (Rattus norvegicus [2]) read?
**A.** 3.7

**Q.** Which Cytoprotective effect (Rattus norvegicus [1]) does the source give for `CC1=CC(=O)C2C(C)CC[C@H]3[C@H](C)C(=O)O[C@@H]3[C@]12C` (some centres not stated) here?
**A.** 3.5

**Q.** For `C=C1C(=O)O[C@@H]2C[C@@H](C)[C@@H]3C=CC(=O)[C@@]3(C)[C@@H](O)[C@H]12` [HELENALIN], which Cytoprotective effect (Rattus norvegicus [1]) is on record?
**A.** 0.33

**Q.** How did the Cytoprotective effect (Rattus norvegicus [1]) turn out when `C=C1C(=O)O[C@@H]2C[C@@H](C)C3CCC(=O)[C@@]3(C)[C@@H](O)[C@H]12` (some centres not stated) was run?
**A.** 1

**Q.** With `C=C1C(=O)O[C@@H]2C[C@@H](C)C3C=CC(=O)[C@@]3(C)[C@@H](OC(C)=O)[C@H]12` (some centres not stated) as the molecule, how does the Cytoprotective effect (Rattus norvegicus [1]) read?
**A.** 1

**Q.** With `CC1C(=O)O[C@@H]2[C@H]1CC[C@H](C)[C@@]1(O)CCC(=O)[C@@]21C` (some centres not stated) as the molecule, how does the Cytoprotective effect (Rattus norvegicus [2]) read?
**A.** 4.5
